Assay results from US9029405B2, “5-(biphenyl-4-yl)-3-phenyl-1,2,4-oxadiazolyl derivatives as ligands on the sphingosine 1-phosphate(SIP)receptors” (Merck Serono S.A., priority 2010, dated 2015).
pEC50: −log10 of the molar value. Counter-ions that a name gives are not always drawn. Like-named read-outs stand apart in the source and are kept apart here.

How the values were obtained:
S1P3 = S1P3 (Homo sapiens, UniProt Q99500); experiment: Receptor binding assay, [33P]sphingosine 1-phosphate competition, membranes of CHO cells expressing S1P3
Summary of the method: (§1)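 SPA competition on CHO membranes with [33P]S1P at 30 pM (S1P1) or 15 pM (S1P3), in 50 mM HEPES pH 7.5, 5 mM MgCl2, 100 mM NaCl, 0.4% fatty acid-free BSA, 60 min at RT. Non-specific binding defined by 1000-fold unlabeled S1P; Ki values reported.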

S1P1 [1] = target: T1, S1P1 (Homo sapiens, UniProt P21453); experiment: S1P1 internalization assay in S1P1-U2OS cells (cell imaging); assay type: cell-based; set-up: host or cells: U2OS (human bone osteosarcoma epithelial cells); conditions: U2OS cells expressing S1P1-EGFP, 384-well format
Summary of the method: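 U2OS cells stably expressing human S1P1-EGFP, serum-starved 2 h in medium with 0.1% fatty-acid-free BSA, then compound 1 h at 37° C. After fixation and Hoechst nuclear stain, receptor internalization imaged as EGFP spot count per nucleus.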
Target sequence in this assay (P21453 whole entry): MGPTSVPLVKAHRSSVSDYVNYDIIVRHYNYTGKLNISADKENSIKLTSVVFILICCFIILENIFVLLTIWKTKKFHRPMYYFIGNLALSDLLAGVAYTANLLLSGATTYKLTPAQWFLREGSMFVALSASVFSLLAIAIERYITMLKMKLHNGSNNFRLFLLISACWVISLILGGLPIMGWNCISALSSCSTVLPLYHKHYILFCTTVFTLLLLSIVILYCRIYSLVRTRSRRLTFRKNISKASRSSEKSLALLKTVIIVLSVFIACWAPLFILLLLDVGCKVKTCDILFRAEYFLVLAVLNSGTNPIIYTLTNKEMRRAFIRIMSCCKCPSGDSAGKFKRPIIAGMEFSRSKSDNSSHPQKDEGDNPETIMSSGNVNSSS

S1P1 [2] = target: T1, S1P1; experiment: Receptor binding assay, [33P]sphingosine 1-phosphate competition, membranes of CHO cells expressing S1P1
Summary of the method: as §1
Target sequence in this assay (P21453 whole entry, species assumed): as the sequence (P21453 whole entry) above

[3] = 384 well plate, read-out: S1P3 Binding Ki [M] (384 well plate)
[4] = 384 well plate, read-out: S1P1 Binding Ki [M] (384 well plate)
[5] = 96 well plate, read-out: S1P3 Binding Ki [M] (96 well plate)

Chain of S1P3 (Q99500 whole entry, species assumed): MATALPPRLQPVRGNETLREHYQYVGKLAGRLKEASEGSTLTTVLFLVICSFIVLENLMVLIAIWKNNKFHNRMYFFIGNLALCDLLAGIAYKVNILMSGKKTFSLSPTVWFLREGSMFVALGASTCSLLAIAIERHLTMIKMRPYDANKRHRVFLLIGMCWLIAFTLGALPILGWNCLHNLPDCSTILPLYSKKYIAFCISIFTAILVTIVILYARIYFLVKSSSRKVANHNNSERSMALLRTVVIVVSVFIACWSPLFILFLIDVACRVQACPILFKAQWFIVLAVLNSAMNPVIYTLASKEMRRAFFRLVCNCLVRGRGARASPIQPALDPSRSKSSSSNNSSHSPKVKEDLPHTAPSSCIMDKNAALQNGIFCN

Row | SMILES | melting point [°C] | Ki (S1P3; [3]) [M] | pEC50 (S1P1 [1]) | Ki (S1P1 [2]; [4]) [M] | Ki (S1P3; [5]) [M] | Ki (S1P1 [2]; 96 well plate, read-out: S1P1 Binding Ki [M] (96 well plate))
1 | Cc1ccccc1-c1ccc(-c2nc(-c3ccc(C(C)N(C)CC(=O)O)cc3)no2)cc1C(F)(F)F (stereo not shown) (as salt: hydrochloride) [Example 40, N-methyl-N-[1-(4-{5-[2′-methyl-2-(trifluoromethyl)biphenyl-4-yl]-1,2,4-oxadiazol-3-yl}phenyl)ethyl]glycine, hydrochloride salt] | 204 |  |  |  |  | 
2 | Cc1ccccc1-c1ccc(-c2nc(-c3ccc([C@H](C)N(C)CC(=O)O)cc3)no2)cc1C(F)(F)F (as salt: hydrochloride) [Example 34, N-methyl-N-[(1S)-1-(4-{5-[2′-methyl-2-(trifluoromethyl)biphenyl-4-yl]-1,2,4-oxadiazol-3-yl}phenyl)ethyl]glycine, hydrochloride salt] | 221 |  |  |  |  | 
3 | Cc1cc(-c2nc(-c3cccc(C(C)NCC(=O)O)c3)no2)ccc1-c1ccccc1C(F)(F)F (stereo not shown) (as salt: hydrochloride) [Example 38, N-[1-(3-{5-[2-methyl-2′-(trifluoromethyl)biphenyl-4-yl]-1,2,4-oxadiazol-3-yl}phenyl)ethyl]glycine, hydrochloride salt] | 176 |  |  |  |  | 
4 | Cc1cc(-c2nc(-c3ccc([C@H](C)N(C)CC(=O)O)cc3)no2)ccc1-c1ccccc1C(F)(F)F (as salt: hydrochloride) [Example 33, N-methyl-N-[(1S)-1-(4-{5-[2-methyl-2′-(trifluoromethyl)biphenyl-4-yl]-1,2,4-oxadiazol-3-yl}phenyl)ethyl]glycine, hydrochloride salt] | 217 |  |  |  |  | 
5 | Cc1ccccc1-c1ccc(-c2nc(-c3cccc(C(C)NCC(=O)O)c3)no2)cc1C(F)(F)F (stereo not shown) [Example 42, N-[1-(3-{5-[2′-methyl-2-(trifluoromethyl)biphenyl-4-yl]-1,2,4-oxadiazol-3-yl}phenyl)ethyl]glycine, hydrochloride salt] |  | 1.06e-07 | 8.14 | 1.02e-09 |  | 
6 | Cc1ccccc1-c1ccc(-c2nc(-c3ccc(CN(C)[C@H](C(=O)O)C(C)C)c(F)c3)no2)cc1C(F)(F)F [Example 13, N-(2-fluoro-4-{5-[2′-methyl-2-(trifluoromethyl)biphenyl-4-yl]-1,2,4-oxadiazol-3-yl}benzyl)-N-methylvaline, hydrochloride salt] |  | 1.53e-06 | 6.55 | 5.23e-09 |  | 
7 | Cc1ccccc1-c1ccc(-c2nc(-c3ccc(CN(C)C4(C(=O)O)CCCC4)cc3)no2)cc1C(F)(F)F [Example 73] |  | 5.42e-06 | 7.53 | 2.27e-09 |  | 
8 | Cc1cc(-c2nc(-c3ccc(CNC(C)(C)C(=O)O)c(F)c3)no2)ccc1-c1ccccc1C(F)(F)F [Example 48, N-(2-fluoro-4-{5-[2-methyl-2′-(trifluoromethyl)biphenyl-4-yl]-1,2,4-oxadiazol-3-yl}benzyl)-2-methylalanine, hydrochloride salt] |  | > 2e-05 | 7.62 | 4.68e-09 |  | 
9 | Cc1ccccc1-c1ccc(-c2nc(-c3ccc(CN(C)[C@H](C)C(=O)O)cc3)no2)cc1C(F)(F)F [Example 71] |  | 7.7e-07 | 8.25 | 2e-09 | 7.01e-07 | 
10 | COCc1cc(-c2nc(-c3ccc([C@@H](C)N[C@H](C)C(=O)O)cc3)no2)ccc1-c1ccccc1C [Example 4, N-[(1R)-1-(4-{5-[2-(methoxymethyl)-2′-methylbiphenyl-4-yl]-1,2,4-oxadiazol-3-yl}phenyl)ethyl]-D-alanine, hydrochloride salt] |  | 8.63e-07 | 8.70 | 9.18e-10 | 2.2e-06 | 1.45e-10
11 | CC[C@@H](C(=O)O)N(C)Cc1cccc(-c2noc(-c3ccc(-c4ccccc4C)c(C(F)(F)F)c3)n2)c1 [Example 86] |  | 5.55e-07 | 7.40 | 5.88e-09 |  | 
12 | Cc1ccccc1-c1ccc(-c2nc(-c3ccc(CN[C@H](C)C(=O)O)cc3)no2)cc1C(F)(F)F [Example 68] |  | 7.57e-06 | 7.69 | 2.47e-09 |  | 
13 | Cc1ccccc1-c1ccc(-c2nc(-c3ccc(CNC(C(=O)O)C(C)O)cc3)no2)cc1C(F)(F)F (stereo not shown) [Example 64] |  | 1.99e-06 | 7.34 | 6.78e-09 |  | 
